We go through 1 molecule from paper PMC5844868, “Increased intracellular activity of MP1102 and NZ2114 against Staphylococcus aureus in vitro and in vivo” (Scientific Reports, 2018).

The subject of one test is MSSA ATCC25923. Put plainly: MIC in MHB at pH 7.3 and 5.0. The format is cell-based. Particulars: Staphylococcus aureus.
Test [1] concerns Virulent S. aureus CVCC546 phagocytosed by RAW 264.7 macrophages. Put plainly: Intracellular dose-response in RAW 264.7 macrophages, 24 h. In kind it is cell-based, Staphylococcus aureus. Here is the method:
(§1) For intracellular activity, RAW 264.7 macrophages (2.5 × 10^5 cells/ml) were seeded into a 6-well plate (1.5 ml/well) and cultured for 24 h in DMEM with 10% FBS (without antibiotics). Meanwhile, mid-log phase S. aureus strains (MSSA ATCC25923, MRSA ATCC43300 and high virulent CVCC546) were collected by centrifugation, diluted to a concentration of 2.5 × 10^7 CFU/ml in DMEM with 10% FBS (without antibiotic), and incubated with RAW 264.7 macrophages (1.5 ml/well) for 0.5 h. In total, 100 μg/ml gentamicin (for MSSA ATCC25923) or 50 μg/ml lysostaphin (for MRSA ATCC43300 and virulent CVCC546) was added to the cells and incubated for 1 h to remove non-phagocytosed bacteria. […] The numbers of intracellular bacteria were measured at 0 h and 24 h using the above method.
(§2) The Hill equation was used to analyze the dose-effect relationships of the intracellular and extracellular activities of MP1102 and NZ2114 against S. aureus. The Emax, Cs and goodness of fit (R^2) were calculated by non-linear regression using GraphPad Prism version 6 (GraphPad Prism Software, San Diego, CA, USA). The other statistical procedures, means and SEMs were performed and calculated using IBM SPSS Statistics 21.0.

Test [2] deals with MRSA ATCC43300 phagocytosed by RAW 264.7 macrophages. The description is as above. In kind it is cell-based, Staphylococcus aureus. On the procedure:
as §1, §2

For test [3], the system named is MSSA ATCC25923 phagocytosed by RAW 264.7 macrophages. The test is described as above. The format is cell-based, Staphylococcus aureus. The note with it: Hill equation. Here is the method: as §1, §2
[4] abbreviates: Intracellular, Hill equation, 95% CI in brackets.
Setting [5] is: Intracellular, change at 24 h from original inoculum, extrapolated, Hill equation.

Values after ≈ are worked out from the molar mass of the structure shown. Like-named read-outs stand apart in the source and are kept apart here. Bounds are passed on as bounds.

With `CN[C@H](CC(C)C)C(=O)N[C@H]1C(=O)N[C@@H](CC(N)=O)C(=O)N[C@H]2C(=O)N[C@H]3C(=O)N[C@H](C(=O)N[C@H](C(=O)O)c4cc(O)cc(O)c4-c4cc3ccc4O)[C@H](O)c3ccc(c(Cl)c3)Oc3cc2cc(c3O[C@@H]2O[C@H](CO)[C@@H](O)[C@H](O)[C@H]2O[C@H]2C[C@](C)(N)[C@H](O)[C@H](C)O2)Oc2ccc(cc2Cl)[C@H]1O` [Vancomycin], the MIC was < 0.004 µg/mL in the test on MSSA ATCC25923 (pH 5, read-out: MICs) and 0.125 µg/mL (≈ 0.0863 µM) with MSSA ATCC25923 (pH 7.3, read-out: MICs). For the same molecule, the EC50 in test [1] (setting [4]) is reported as 3.53 multiples of the MIC; in test [2] (setting [4]), 1.10 multiples of the MIC; in test [3] (95% CI in brackets) it was 24.29 multiples of the MIC. Besides, the “Emax (log CFU, 95% CI)” value is 0.46 log CFU in test [1] (setting [5]); 0.43 log CFU in test [2] (setting [5]); −4.85 log CFU in test [3] (change at 24 h from original inoculum, extrapolated to infinitely high concentration). Further, the “resistant rates for the highest test concentrations compared to the untreated group” value in test [1] (intracellular, 24 h) was determined as 99.68%; in test [2] (intracellular, 24 h), 93.03%.
